In paper PMC7559897, “Designed Antimicrobial Peptides Against Trauma-Related Cutaneous Invasive Fungal Wound Infections” (Journal of Fungi, 2020):
Converted amounts (≈) assume the structure as drawn. Bridge positions count the residues as written; N and C are the ends. Peptide text beside a SMILES is read from it.

How the values were obtained:
A. baumannii 6043 = type: cell-based, Acinetobacter baumannii; details: cation adjusted Mueller-Hinton broth, ~10^6 CFU/mL, 24 h, 37 °C, OD600 <0.1 in at least 3 of 4 wells, 2-128 μg/mL; shaded values previously reported ref 18
Summary of the method: (§1)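 Overnight TSB cultures (37 °C) diluted to approx. 10^6 CFU/mL, 2X CAMHB; fungal isolate in potato dextrose broth. dAMP 2-fold series 2–128 μg/mL, n=4. 24 h, 37 °C, A600; MIC: ≥3/4 wells OD <0.1.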

A. baumannii 6838 = type: cell-based, Acinetobacter baumannii; details: cation adjusted Mueller-Hinton broth, ~10^6 CFU/mL, 24 h, 37 °C, OD600 <0.1 in at least 3 of 4 wells, 2-128 μg/mL; shaded values previously reported ref 18
Summary of the method: as §1

A. baumannii ATCC 17978 = type: cell-based, Acinetobacter baumannii; details: cation adjusted Mueller-Hinton broth, ~10^6 CFU/mL, 24 h, 37 °C, OD600 <0.1 in at least 3 of 4 wells, 2-128 μg/mL; shaded values previously reported ref 18
Summary of the method: as §1

K. pneumonia 6069 = type: cell-based, Klebsiella pneumoniae; details: cation adjusted Mueller-Hinton broth, ~10^6 CFU/mL, 24 h, 37 °C, OD600 <0.1 in at least 3 of 4 wells, 2-128 μg/mL; shaded values previously reported ref 18
Summary of the method: as §1

K. pneumonia ATCC 10031 = type: cell-based, Klebsiella pneumoniae; details: cation adjusted Mueller-Hinton broth, ~10^6 CFU/mL, 24 h, 37 °C, OD600 <0.1 in at least 3 of 4 wells, 2-128 μg/mL; shaded values previously reported ref 18
Summary of the method: as §1

MRSA 6313 = type: cell-based, Staphylococcus aureus; details: cation adjusted Mueller-Hinton broth, ~10^6 CFU/mL, 24 h, 37 °C, OD600 <0.1 in at least 3 of 4 wells, 2-128 μg/mL; shaded values previously reported ref 18
Summary of the method: as §1

MRSA 6381 = type: cell-based, Staphylococcus aureus; details: cation adjusted Mueller-Hinton broth, ~10^6 CFU/mL, 24 h, 37 °C, OD600 <0.1 in at least 3 of 4 wells, 2-128 μg/mL; shaded values previously reported ref 18
Summary of the method: as §1

S. aureus 6061 = type: cell-based, Staphylococcus aureus; details: cation adjusted Mueller-Hinton broth, ~10^6 CFU/mL, 24 h, 37 °C, OD600 <0.1 in at least 3 of 4 wells, 2-128 μg/mL; shaded values previously reported ref 18
Summary of the method: as §1

S. aureus B-767 = type: cell-based, Staphylococcus aureus; details: cation adjusted Mueller-Hinton broth, ~10^6 CFU/mL, 24 h, 37 °C, OD600 <0.1 in at least 3 of 4 wells, 2-128 μg/mL; shaded values previously reported ref 18
Summary of the method: as §1

[1] = system: P. aeruginosa 19660 (Xen5 luciferase); assay: Bioluminescent time-kill assay; type: cell-based, Pseudomonas aeruginosa; details: 8 μg/mL; RP553 at 60 min; bioluminescence
From the text: (§2) Fungal and bacterial strains were obtained from American Type Culture Collection (ATCC, Manassas, VA, USA) or the clinical isolate collection at Trideum Biosciences (Frederick, MD, USA) and are presented in Table 1 and Table 2, respectively. Bioluminescence strains of P. aeruginosa 19660, transfected with the Xen5 luciferase gene, and S. aureus ATCC R 49525TM (Wright), transfected with the Xen36 luciferase gene, were obtained from Perkin Elmer (Waltham, MA, USA).
(§3) Real-time killing of bacterial cells, P. aeruginosa or S. aureus, and mammalian cytotoxicity to assess dAMP off-target toxicity was evaluated using bioluminescent cells. The L929 fibroblast cells (ATCC, Manassas, VA, USA) were made bioluminescent by transfection with a luciferase gene. Cells (1 × 10^4 cells, 100 μL) were plated in 96-well black-walled plates and the candidate dAMPs were 2-fold serially diluted from specified concentrations in growth medium supplemented with 150 μg/mL D-luciferin. Each concentration was performed in triplicate, with the final volume being 200 μL. Imaging was performed at select times after the addition of the dAMP, and compared to concurrently run vehicle-control, using an IVIS Lumina imaging system (Caliper Life Sciences, Inc., Hopkinton, MA, USA). For imaging, the 96-well plate was positioned on the stage (12.5-cm field of view), with an open emission filter, binning of 4, and f-stop 1 and a 1-min exposure time. Monitoring bioluminescence allows assessment of the kinetics of cellular viability as there is a tight correlation between the bioluminescent signal and cell viability. Data analysis was performed using the Living Image software program (version 4.3, Caliper Life Sciences, Inc., Hopkinton, MA, USA).
(§4) Figure 3 RP553, RP556, RP557 rapidly destroy P. aeruginosa and S. aureus. The bioluminescence of viable P. aeruginosa 19,660 and S. aureus 49,525 cells was quantitated in real time with an IVIS Lumina bioimaging system. Data represent the mean ± SE of triplicate replicates from two independent experiments. For some points, the error bars are shorter than the height of the symbols.

[2] = system: S. aureus 49525 (Xen36 luciferase); type: cell-based, Staphylococcus aureus; details: 8 μg/mL, 60 min incubation, bioluminescence, triplicates from two independent experiments
From the text: as §2, §3, §4

CC[C@H](C)[C@@H]1NC(=O)CNC(=O)[C@H](CCCCN)NC(=O)[C@H](Cc2ccc(O)cc2)NC(=O)[C@@H]2CSSC[C@H](NC1=O)C(=O)N[C@@H](Cc1ccccc1)C(=O)N[C@@H](CCCCN)C(=O)N[C@@H](CCCCN)C(=O)N[C@H](C(=O)N[C@@H](CCCCN)C(N)=O)CSSC[C@H](NC(=O)[C@H](Cc1ccccc1)NC(=O)[C@@H](N)CCCNC(=N)N)C(=O)N[C@@H](Cc1c[nH]c3ccccc13)C(=O)N[C@@H](CCCCN)C(=O)N[C@@H](C(C)C)C(=O)N2 [RP557] (H-RFCWKVCYKGICFKKCK-NH2; disulfide 3-16, 7-12)
MIC against A. baumannii 6043 (A. baumannii 6043): 8 µg/mL (≈ 3.75 µM) | MIC against A. baumannii 6838 (A. baumannii 6838): 8 µg/mL (≈ 3.75 µM) | MIC against A. baumannii ATCC 17978 (A. baumannii ATCC 17978): 16 µg/mL (≈ 7.49 µM) | MIC against K. pneumonia 6069 (K. pneumonia 6069): 4 µg/mL (≈ 1.87 µM) | MIC against K. pneumonia ATCC 10031 (K. pneumonia ATCC 10031): 8 µg/mL (≈ 3.75 µM) | MIC against MRSA 6313 (MRSA 6313): 4 µg/mL (≈ 1.87 µM) | MIC against MRSA 6381 (MRSA 6381): 4 µg/mL (≈ 1.87 µM) | MIC against S. aureus 6061 (S. aureus 6061): 8 µg/mL (≈ 3.75 µM) | MIC against S. aureus B-767 (S. aureus B-767): 4 µg/mL (≈ 1.87 µM) | P. aeruginosa killing (in words) [1]: immediate eradication | S. aureus killing [2]: 70%
